Measurements as given in ChEMBL document CHEMBL1155626, “Metabolites of Colletotrichum gloeosporioides, an endophytic fungus in Artemisia mongolica” (2000).
Values after ≈ are worked out from the molar mass of the structure shown.

Columns and labels:
Format in all cases: functional
[1] = test system: Bacillus subtilis; test: Antimicrobial activity against Bacillus subtilis after 48 hrs by paper disk assay
[2] = test system: Micrococcus luteus; test: Antimicrobial activity against Sarcina lutea after 48 hrs by paper disk assay
[3] = test system: Helminthosporium; test: Antimicrobial activity against Helminthosporium sativum after 96 hrs by paper disk assay
[4] = test system: Staphylococcus aureus; test: Antimicrobial activity against Staphylococcus aureus after 48 hrs by paper disk assay

MIC [1] [µg/mL]	MIC [2] [µg/mL]	MIC [4] [µg/mL]	Structure (SMILES)	MIC [3] [µg/mL]
0.05 (≈ 0.143 µM)	0.01 (≈ 0.0286 µM)		CC1(C)S[C@@H]2[C@H](NC(=O)[C@H](N)c3ccccc3)C(=O)N2[C@H]1C(=O)O [AMPICILLIN]	
			CC(C)(C)C(=O)C(Oc1ccc(Cl)cc1)n1cncn1 (configuration not stated) [TRIADIMEFON]	20 (≈ 68.1 µM)
25 (≈ 47.7 µM)	50 (≈ 95.3 µM)	50 (≈ 95.3 µM)	COc1c(C)c(OC(=O)c2c(C)cc(O)cc2O)c(C)c(C(=O)Oc2cc(O)c(C(=O)O)c(C)c2C)c1C [COLLETOTRIC ACID]	50 (≈ 95.3 µM)
